Laboratory results taken from PubChem BioAssay (NCI).
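Briefly, cells in 96-well plates were exposed to five compound concentrations for 48 h, and endpoints were estimated by linear interpolation. At the GI50, growth is halved. At the TGI there is no net growth.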

Key:
Test in all cases: inhibition of tumour cell growth, NCI panel, 48 h
786-0 renal = tested on: 786-0 renal
A498 renal = tested on: A498 renal
A549 NSCLC = tested on: A549 NSCLC
ACHN renal = tested on: ACHN renal
BT-549 breast = tested on: BT-549 breast
CAKI-1 renal = tested on: CAKI-1 renal
CCRF-CEM leukemia = tested on: CCRF-CEM leukemia
COLO 205 colon = tested on: COLO 205 colon
DU-145 prostate = tested on: DU-145 prostate
EKVX NSCLC = tested on: EKVX NSCLC
HCC-2998 colon = tested on: HCC-2998 colon
HCT-116 colon = tested on: HCT-116 colon
HCT-15 colon = tested on: HCT-15 colon
HL-60(TB) leukemia = tested on: HL-60(TB) leukemia
HOP-62 NSCLC = tested on: HOP-62 NSCLC
HOP-92 NSCLC = tested on: HOP-92 NSCLC
HS 578T breast = tested on: HS 578T breast
HT29 colon = tested on: HT29 colon
IGROV1 ovarian = tested on: IGROV1 ovarian
K-562 leukemia = tested on: K-562 leukemia
KM12 colon = tested on: KM12 colon
LOX IMVI melanoma = tested on: LOX IMVI melanoma
M14 melanoma = tested on: M14 melanoma
MALME-3M melanoma = tested on: MALME-3M melanoma
MCF7 breast = tested on: MCF7 breast
MDA-MB-231 breast = tested on: MDA-MB-231 breast
MDA-MB-435 = tested on: MDA-MB-435
MDA-MB-468 breast = tested on: MDA-MB-468 breast
MOLT-4 leukemia = tested on: MOLT-4 leukemia
NCI-H226 lung = tested on: NCI-H226 lung
NCI-H23 lung = tested on: NCI-H23 lung
NCI-H460 lung = tested on: NCI-H460 lung
NCI-H522 lung = tested on: NCI-H522 lung
NCI/ADR-RES ovarian = tested on: NCI/ADR-RES ovarian
OVCAR-3 ovarian = tested on: OVCAR-3 ovarian
OVCAR-4 ovarian = tested on: OVCAR-4 ovarian
OVCAR-5 ovarian = tested on: OVCAR-5 ovarian
OVCAR-8 ovarian = tested on: OVCAR-8 ovarian
PC-3 prostate = tested on: PC-3 prostate
RPMI-8226 leukemia = tested on: RPMI-8226 leukemia
SF-268 CNS = tested on: SF-268 CNS
SF-295 CNS = tested on: SF-295 CNS
SF-539 CNS = tested on: SF-539 CNS
SK-MEL-2 melanoma = tested on: SK-MEL-2 melanoma
SK-MEL-28 melanoma = tested on: SK-MEL-28 melanoma
SK-MEL-5 melanoma = tested on: SK-MEL-5 melanoma
SK-OV-3 ovarian = tested on: SK-OV-3 ovarian
SN12C renal = tested on: SN12C renal
SNB-19 CNS = tested on: SNB-19 CNS
SNB-75 CNS = tested on: SNB-75 CNS
SR leukemia = tested on: SR leukemia
SW-620 colon = tested on: SW-620 colon
TK-10 renal = tested on: TK-10 renal
U251 CNS = tested on: U251 CNS
UACC-257 melanoma = tested on: UACC-257 melanoma
UACC-62 melanoma = tested on: UACC-62 melanoma
UO-31 renal = tested on: UO-31 renal

Work on `Cn1cc(-c2nc(N)nnc2-c2c[nH]c3ccccc23)c2cc(Br)cnc21` yielded a GI50 (786-0 renal) of 53.7 nM, a TGI (786-0 renal) of 15600 nM and a GI50 (A498 renal) of 15600 nM. It also gave a TGI (A498 renal) of 29700 nM, a GI50 (A549 NSCLC) of 62.5 nM and a TGI (A549 NSCLC) of 19300 nM. For the same compound, the GI50 (ACHN renal) was 74.3 nM, the TGI (ACHN renal) was 16900 nM and the GI50 (BT-549 breast) was 29 nM. For the same compound, the TGI (BT-549 breast) was 5670 nM, the GI50 (CAKI-1 renal) was 53.5 nM and the TGI (CAKI-1 renal) was 17100 nM. It also gave a GI50 (CCRF-CEM leukemia) of 33.4 nM, a TGI (CCRF-CEM leukemia) greater than 35500 nM and a GI50 (COLO 205 colon) of 41.4 nM. It also gave a TGI (COLO 205 colon) of 280 nM, a GI50 (DU-145 prostate) of 87.7 nM and a TGI (DU-145 prostate) of 22400 nM. For the same compound, the GI50 (EKVX NSCLC) was 94.9 nM, the TGI (EKVX NSCLC) was 20700 nM and the GI50 (HCC-2998 colon) was 84.1 nM. The TGI (HCC-2998 colon) was 3470 nM, the GI50 (HCT-116 colon) was 44.1 nM and the TGI (HCT-116 colon) was 6510 nM. It also gave a GI50 (HCT-15 colon) of 37.6 nM, a TGI (HCT-15 colon) of 10700 nM and a GI50 (HL-60(TB) leukemia) of 26.5 nM. It also gave a TGI (HL-60(TB) leukemia) of 100 nM, a GI50 (HOP-62 NSCLC) of 56.4 nM and a TGI (HOP-62 NSCLC) of 21200 nM. It also gave a GI50 (HOP-92 NSCLC) of 3890 nM, a TGI (HOP-92 NSCLC) of 25500 nM and a GI50 (HS 578T breast) of 31.9 nM. It also gave a TGI (HS 578T breast) of 33700 nM, a GI50 (HT29 colon) of 34.7 nM and a TGI (HT29 colon) of 1230 nM. For the same compound, the GI50 (IGROV1 ovarian) was 72.1 nM, the TGI (IGROV1 ovarian) was 15200 nM and the GI50 (K-562 leukemia) was 35.7 nM. For the same compound, the TGI (K-562 leukemia) was greater than 100000 nM, the GI50 (KM12 colon) was 50.6 nM and the TGI (KM12 colon) was 13900 nM. The GI50 (LOX IMVI melanoma) was 43.5 nM, the TGI (LOX IMVI melanoma) was 15800 nM and the GI50 (M14 melanoma) was 52.6 nM. The TGI (M14 melanoma) was 2060 nM, the GI50 (MALME-3M melanoma) was 46.6 nM and the TGI (MALME-3M melanoma) was 18500 nM. It also gave a GI50 (MCF7 breast) of 27.5 nM, a TGI (MCF7 breast) of 10600 nM and a GI50 (MDA-MB-231 breast) of 69.7 nM. It also gave a TGI (MDA-MB-231 breast) of 11700 nM, a GI50 (MDA-MB-435) of 16.7 nM and a TGI (MDA-MB-435) of 52.5 nM. For the same compound, the GI50 (MDA-MB-468 breast) was 20 nM, the TGI (MDA-MB-468 breast) was 51.8 nM and the GI50 (MOLT-4 leukemia) was 50.5 nM. The TGI (MOLT-4 leukemia) was 19200 nM, the GI50 (NCI-H226 lung) was 50.9 nM and the TGI (NCI-H226 lung) was 2700 nM. It also gave a GI50 (NCI-H23 lung) of 73.8 nM, a TGI (NCI-H23 lung) of 10400 nM and a GI50 (NCI-H460 lung) of 46.2 nM. It also gave a TGI (NCI-H460 lung) of 1350 nM, a GI50 (NCI-H522 lung) of 12.5 nM and a TGI (NCI-H522 lung) of 79.7 nM. It also gave a GI50 (NCI/ADR-RES ovarian) of 92.4 nM, a TGI (NCI/ADR-RES ovarian) of 776 nM and a GI50 (OVCAR-3 ovarian) of 39 nM. It also gave a TGI (OVCAR-3 ovarian) of 692 nM, a GI50 (OVCAR-4 ovarian) of 2700 nM and a TGI (OVCAR-4 ovarian) of 36800 nM. For the same compound, the GI50 (OVCAR-5 ovarian) was 72.9 nM, the TGI (OVCAR-5 ovarian) was 15500 nM and the GI50 (OVCAR-8 ovarian) was 63.4 nM. It also gave a TGI (OVCAR-8 ovarian) of 4700 nM, a GI50 (PC-3 prostate) of 56 nM and a TGI (PC-3 prostate) of 47900 nM. For the same compound, the GI50 (RPMI-8226 leukemia) was 70.8 nM, the TGI (RPMI-8226 leukemia) was greater than 45500 nM and the GI50 (SF-268 CNS) was 340 nM. It also gave a TGI (SF-268 CNS) of 25500 nM, a GI50 (SF-295 CNS) of 29.4 nM and a TGI (SF-295 CNS) of 1190 nM. For the same compound, the GI50 (SF-539 CNS) was 32.3 nM, the TGI (SF-539 CNS) was 175 nM and the GI50 (SK-MEL-2 melanoma) was 40.9 nM. The TGI (SK-MEL-2 melanoma) was 14300 nM, the GI50 (SK-MEL-28 melanoma) was 364 nM and the TGI (SK-MEL-28 melanoma) was 19200 nM. For the same compound, the GI50 (SK-MEL-5 melanoma) was 30.1 nM, the TGI (SK-MEL-5 melanoma) was 1190 nM and the GI50 (SK-OV-3 ovarian) was 48.7 nM. The TGI (SK-OV-3 ovarian) was 21200 nM, the GI50 (SN12C renal) was 58.9 nM and the TGI (SN12C renal) was 14300 nM. For the same compound, the GI50 (SNB-19 CNS) was 63.2 nM, the TGI (SNB-19 CNS) was 10400 nM and the GI50 (SNB-75 CNS) was 30.2 nM. It also gave a TGI (SNB-75 CNS) of 18300 nM, a GI50 (SR leukemia) of 30.9 nM and a TGI (SR leukemia) greater than 100000 nM. The GI50 (SW-620 colon) was 37.6 nM, the TGI (SW-620 colon) was 13200 nM and the GI50 (TK-10 renal) was 5950 nM. For the same compound, the TGI (TK-10 renal) was 34200 nM, the GI50 (U251 CNS) was 40.2 nM and the TGI (U251 CNS) was 6710 nM. It also gave a GI50 (UACC-257 melanoma) of 42.1 nM, a TGI (UACC-257 melanoma) of 21800 nM and a GI50 (UACC-62 melanoma) of 29.4 nM. It also gave a TGI (UACC-62 melanoma) of 7680 nM, a GI50 (UO-31 renal) of 71.1 nM and a TGI (UO-31 renal) of 15200 nM.
